In patent US20230131630A1, “METHOD OF SCREENING FOR A SUBSTANCE THAT ACTS ON A CELL MASS” (LSI MEDIENCE CORPORATION, priority 2017, published 2023):

Columns and labels:
[1] = test system: reproduced cell mass originating from the PDX tumor of pancreatic cancer (1); assay: In vitro gemcitabine sensitivity test, ATP assay on subcultured (reproduced) cell mass; assay type: cell-based, human; details: fresh or frozen tumor-derived, gemcitabine 0.001-10 µmol/L from Day 3, ATP assay on Day 7, FIGS. 10-1, 10-2
Procedure: A fresh tumor-derived cell mass and a frozen tumor-derived cell mass were obtained in accordance with Examples 1 and 10, respectively, using a PDX tumor of pancreatic cancer (1) (procured from National Institutes of Biomedical Innovation, Health and Nutrition). Each cell mass was collected in a 50-mL tube, and the supernatant was removed by centrifugation at 300 × g for 5 min. Thereafter, the cell mass was suspended in TrypLE (Thermo Fisher Scientific K.K.) and enzymatically treated in a warm bath at 37° C. The reaction was weakened by adding 10 times the amount of HBSS (Thermo Fisher Scientific K.K.) to the reaction solution. The undispersed residues were removed by passing the mixture through a 100-µm cell strainer. […]
The necessary amount of cells were collected in a 15-mL tube, and the supernatant was removed by centrifugation at 300 × g for 5 min. […] The seeded cell count was 1 × 10^4 cells/200 µL/well (fresh tumor-derived) or 4 × 10^3 cells/200 µL/well (frozen tumor-derived), and the day of seeding was determined to be Day 0. […] The ratio of the result of each measurement day with respect to the result of Day 0 was calculated, and a growth curve was created. The proportion based on the result of each gemcitabine concentration group was calculated when the result at a gemcitabine concentration of 0 µmol/L was defined as a cell viability of 100%, thereby creating a cell viability curve. […]

[2] = test system: cell mass of primary cancer cells from PDX tumor of pancreatic cancer (1); assay: In vitro anticancer drug sensitivity test, ATP assay (CellTiter-Glo 3D) on three-dimensionally cultured cell mass; assay type: cell-based, human; details: fresh tumor; gemcitabine 0.001-10 µmol/L from Day 7, ATP assay on Day 14; FIG. 8 right
Procedure: A half of medium exchange was performed with a culture medium supplemented with gemcitabine on Day 7. A half of medium exchange was performed with a culture medium supplemented with gemcitabine which was adjusted to maintain the final concentration on Days 10 and 12. On Day 14, ATP assay was performed, and the proportion based on the result of each gemcitabine concentration group was calculated when the result at a gemcitabine concentration of 0 µmol / L was defined as a cell viability of 100%, thereby creating a cell viability curve. An in vitro anticancer drug sensitivity test was performed by the following procedures. After dispersion treatment, the necessary amount of cells counted were collected in a 15-mL tube, and the supernatant was removed by centrifugation at 300 × g for 5 min. Thereafter, a cell suspension was prepared so that the cell count was 5 × 10^4 cells/mL using a medium prepared by adding Corning Matrigel GFR (Corning Incorporated) to StemPro hESC SFM (Thermo Fisher Scientific K.K.) to yield a final concentration of 2% v/v. […] The seeded cell count was 1 × 10^4 cells/200 µL/well, and the day of seeding was determined to be Day 0. […] The proportion of the result of each gemcitabine concentration group was calculated when the result at a gemcitabine concentration of 0 µmol / L was defined as a cell viability of 100%, thereby creating a cell viability curve.

[3] = test system: PDX tumor of pancreatic cancer (1); assay: In vivo anticancer drug sensitivity test, PDX tumor grafted subcutaneously in immunodeficient mice; details: super SCID mouse, subcutaneous graft; gemcitabine 60 mg/kg/time twice weekly for 4 weeks; FIG. 8 left
Procedure: An in vivo anticancer drug sensitivity test was performed by the following procedures with reference to a known method. A PDX tumor of pancreatic cancer (1), which was subcutaneously grown in an immunodeficient mouse [super SCID mouse (strain name: C3H/HeJ/NOs-scid; LPS-nonresponder)], was aseptically extracted in a safety cabinet, and every necrotic area of the tumor was removed with surgical scissors. Subsequently, graft tumor fragments each having a size of about 2 to 3 mm square were prepared and subcutaneously grafted in at least 12 immunodeficient mice. When the average tumor volume reached about 200 mm^3, the mice were grouped by tumor volume and assigned to a control group and a gemcitabine administration group (N = 6: 6 mice each under the same conditions). Gemcitabine (60 mg/kg/time) was administered at a dosing frequency of twice weekly for 4 weeks. The tumor diameter was measured at a frequency of twice weekly and the tumor volume was calculated, thereby creating a tumor proliferation curve.

[4] = test system: cell mass originating from the once-frozen PDX tumor of pancreatic cancer (1); assay: In vitro gemcitabine sensitivity test, ATP assay on cell mass from once-frozen tumor tissue; assay type: cell-based, human; details: gemcitabine 0.001-10 µmol/L from Day 3, ATP assay on Day 7, FIG. 9
Procedure: The PDX tumor of pancreatic cancer (1) (procured from National Institutes of Biomedical Innovation, Health and Nutrition) was extracted in accordance with Example 1. The tumor was immersed in CELLBANKER 1 (Takara Bio Inc.) and frozen by a Program Deep Freezer (Nepa Gene Co., Ltd.), thereby preparing a frozen tumor. The frozen tumor was thawed in a warm bath at 37° C. and washed with HBSS (Thermo Fisher Scientific K.K.), and then, primary cancer cells were prepared in accordance with Example 1. After dispersion treatment, the necessary amount of cells counted were collected in a 15-mL tube, and the supernatant was removed by centrifugation at 300 × g for 5 min. […] The seeded cell count was 1 × 10^4 cells/200 µL/well, and the day of seeding was determined to be Day 0. […] The proportion of the result of each measurement day with respect to the result of Day 0 was calculated, and a proliferation curve was created. The proportion based on the result of each gemcitabine concentration group was calculated when the result at a gemcitabine concentration of 0 µmol / L was defined as a cell viability of 100%, thereby creating a cell viability curve.

Nc1ccn([C@@H]2O[C@H](CO)[C@@H](O)C2(F)F)c(=O)n1 [Gemcitabine, gemcitabine]
inhibited proliferation: proliferation / cell viability (ATP assay) of the reproduced cell mass [1] | proliferation / cell viability (ATP assay) of the cell mass [2] | proliferation of the PDX tumor (tumor volume, tumor proliferation curve) [3] | proliferation / cell viability (ATP assay) of the cell mass [4]
